Results from patent publication US20160355530A1, “HEPATITIS C INHIBITORS AND USES THEREOF” (AbbVie Inc., priority 2010, published 2016).
Where two headings read alike, the source gives them in different places.

Tests used:
[1] = target: T1, HCV NS5B polymerase 1b BK strain (Hepatitis C virus genotype 1b, UniProt P26663); assay: HCV NS5B polymerase enzymatic inhibition assay, strain 1b BK; assay type: biochemical
T1 construct: six-histidine tag; made in house; host or cells: E. coli
Method: (§1) Purified HCV NS5B polymerase enzymes were used for polymerase inhibition assays. All recombinant HCV polymerases contained the first 570 amino acids of the 591 amino acid native protein sequence and a six-histidine tag at the N-terminus or C-terminus to facilitate purification by affinity chromatography. The DNA nucleotide sequence for the HCV polymerase 1b BK strain was codon optimized for expression in E. coli. A synthetic gene was prepared from a series of overlapping oligonucleotides that were filled in using a DNA polymerase and amplified by PCR. The patient isolate HCV polymerases were cloned by RT-PCR methods using HCV RNA extracted from the serum of infected subjects obtained from ProMedDx and BioCollections (genotypes 2a, 2b, 3a, and 4a). Laboratory strains were cloned from plasmid DNA (1a-H77 or 1a-H77-C316Y) or from existing replicon cells (1b Rice). In all cases the amplified DNA was cloned into a protein expression vector (typically a pET vector from Novagen) and then multiple clones were sequenced to identify one whose NS5B sequence agreed with the population sequence. This sequence-confirmed clone was then transfected into E. coli for protein expression and purification. E. coli cultures were grown to a maximum optical density (OD) of 2-3 and then induced with 0.4 mM isopropyl beta-D-thiogalactopyranoside (IPTG) and grown for 20 hours at 20° C.
(§2) Proteins were purified using nickel affinity chromatography, and additional column steps were added including, ion exchange, size exclusion, hydrophobic ion, and poly-U affinity chromatography, as needed, depending on the sample being purified. The template RNA used in the polymerase enzymatic assay was a 2.1 kb construct that corresponds to the 3′-end of an HCV genotype 1b negative strand RNA.
(§3) The reaction was initiated by the addition of 20 μM CTP, 20 μM ATP, 0.284 μM (0.5 μCi) of 5,6-[^3H] UTP, 5 nM template RNA and 0.1 U/μL RNase inhibitor (RNasin, Promega), and allowed to proceed for three hours at 30° C. The final reaction volume was 50 μL. The reaction was terminated by the addition of 50 uL of 4 mM spermine in 10 mM Tris-HCl, pH 7.5, 1 mM EDTA. The quenched reaction was allowed to incubate for at least 15 minutes at room temperature, and then the precipitated RNA was captured by filtration through a glass fiber filter (GF/B, Millipore) in a 96 well format. The filter plate was washed five times with 200 μL of 2 mM spermine, 10 mM Tris-HCl, pH 8.0, 1 mM EDTA, and two times with ethanol. After drying thoroughly in air, 30 μL of Microscint-20 scintillation cocktail (Perkin Elmer) was added to each well, and the retained cpm were determined by scintillation counting. IC50 values were determined by nonlinear regression.
(§4) % Inhibition=100*[[I]/([I]+[IC50])] equation 1
(§5) V=kcat[S]/2(Km+[S])*(sqrt((IC50+I−E)̂2+(4*IC50*E))−(IC50+I−E)) equation 2

[2] = test system: HCV 1b-BB7 subgenomic replicon; assay: microbe, parasite or virus in culture; assay type: cell-based, HCV genotype 1b; conditions: Hepatitis C virus, stable replicon
[3] = target: T2, HCV NS5B polymerase 1a-H77 (Hepatitis C virus genotype 1a, UniProt P27958); assay: biochemical; set-up: species or system HCV genotype 1a
T2 construct: six-histidine tag; made in house; host or cells: E. coli
Method: as §1, §2, §3, §4, §5

[4] = test system: HCV NS5B polymerase 1a-H77-C316Y; assay: biochemical; set-up: species or system HCV genotype 1a; conditions: ratio of enzyme IC50s, 1a H77-C316Y / 1a H77
Method: as §1, §2, §3, §4, §5

[5] = target: T3, HCV NS5B polymerase 1a-H77-C316Y (Hepatitis C virus genotype 1a, UniProt P27958, C2736Y); assay: biochemical; set-up: species or system HCV genotype 1a
T3 construct: six-histidine tag; made in house; host or cells: E. coli
Method: as §1, §2, §3, §4, §5

[6] = test system: HCV 1a-H77 subgenomic replicon; assay: microbe, parasite or virus in culture; assay type: cell-based, HCV genotype 1a; conditions: Hepatitis C virus, stable replicon
[7] = enzyme, strain 1b BK, read-out: HCV Polymerase Strain 1b BK IC50
[8] = strain 1b BB7, 5% FBS + 40% human plasma, read-out: 1b BB7 5% FBS + 40% Human Plasma EC50
[9] = strain 1b BB7, 5% FBS, no human plasma, read-out: 1b BB7 5% FBS EC50
[10] = strain 1b BB7, 5% FBS, read-out: 1b BB7 5% FBS EC50
[11] = enzyme, strain 1a H77, read-out: HCV Polymerase Strain 1a H77 IC50
[12] = 5% FBS, absence of human plasma, read-out: Stable Replicon 1a H77 5% FBS EC50
[13] = strain 1a H77, 5% FBS + 40% human plasma, read-out: 1a H77 5% FBS + 40% Human Plasma EC50
[14] = strain 1a H77, 5% FBS, no human plasma, read-out: 1a H77 5% FBS EC50
[15] = strain 1a H77, 5% FBS, read-out: 1a H77 5% FBS EC50

T3 sequence (P27958 2421-2990 C2736Y): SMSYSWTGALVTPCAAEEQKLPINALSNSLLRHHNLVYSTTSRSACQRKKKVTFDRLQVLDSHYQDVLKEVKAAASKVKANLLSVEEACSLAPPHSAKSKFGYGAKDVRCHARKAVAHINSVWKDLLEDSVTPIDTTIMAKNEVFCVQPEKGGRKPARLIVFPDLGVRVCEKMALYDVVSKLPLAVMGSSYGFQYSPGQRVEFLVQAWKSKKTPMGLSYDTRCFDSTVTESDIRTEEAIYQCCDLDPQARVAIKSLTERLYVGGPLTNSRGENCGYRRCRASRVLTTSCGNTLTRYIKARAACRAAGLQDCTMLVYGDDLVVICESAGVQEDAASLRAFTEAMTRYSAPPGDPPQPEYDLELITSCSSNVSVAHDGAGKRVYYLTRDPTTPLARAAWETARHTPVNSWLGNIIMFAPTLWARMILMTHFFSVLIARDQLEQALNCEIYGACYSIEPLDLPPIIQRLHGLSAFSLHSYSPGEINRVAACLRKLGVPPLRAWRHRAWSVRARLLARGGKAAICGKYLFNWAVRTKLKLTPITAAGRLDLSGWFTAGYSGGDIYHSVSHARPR
T2 sequence (P27958 2421-2990): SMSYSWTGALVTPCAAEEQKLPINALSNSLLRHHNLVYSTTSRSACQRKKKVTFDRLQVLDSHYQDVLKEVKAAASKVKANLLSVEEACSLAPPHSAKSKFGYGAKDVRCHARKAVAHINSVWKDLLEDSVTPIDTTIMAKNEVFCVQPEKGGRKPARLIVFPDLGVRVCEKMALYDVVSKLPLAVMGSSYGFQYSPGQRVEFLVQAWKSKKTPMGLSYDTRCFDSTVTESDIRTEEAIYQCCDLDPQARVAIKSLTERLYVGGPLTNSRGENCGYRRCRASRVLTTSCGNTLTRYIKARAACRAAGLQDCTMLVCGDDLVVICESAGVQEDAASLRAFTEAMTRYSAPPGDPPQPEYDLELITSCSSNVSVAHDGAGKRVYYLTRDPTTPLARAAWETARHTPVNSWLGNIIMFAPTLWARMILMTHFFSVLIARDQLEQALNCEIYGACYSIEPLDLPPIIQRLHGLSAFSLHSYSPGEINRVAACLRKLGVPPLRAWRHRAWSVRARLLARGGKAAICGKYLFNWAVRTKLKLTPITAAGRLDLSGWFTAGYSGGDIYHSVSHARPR
T1 sequence (P26663 2420-2989): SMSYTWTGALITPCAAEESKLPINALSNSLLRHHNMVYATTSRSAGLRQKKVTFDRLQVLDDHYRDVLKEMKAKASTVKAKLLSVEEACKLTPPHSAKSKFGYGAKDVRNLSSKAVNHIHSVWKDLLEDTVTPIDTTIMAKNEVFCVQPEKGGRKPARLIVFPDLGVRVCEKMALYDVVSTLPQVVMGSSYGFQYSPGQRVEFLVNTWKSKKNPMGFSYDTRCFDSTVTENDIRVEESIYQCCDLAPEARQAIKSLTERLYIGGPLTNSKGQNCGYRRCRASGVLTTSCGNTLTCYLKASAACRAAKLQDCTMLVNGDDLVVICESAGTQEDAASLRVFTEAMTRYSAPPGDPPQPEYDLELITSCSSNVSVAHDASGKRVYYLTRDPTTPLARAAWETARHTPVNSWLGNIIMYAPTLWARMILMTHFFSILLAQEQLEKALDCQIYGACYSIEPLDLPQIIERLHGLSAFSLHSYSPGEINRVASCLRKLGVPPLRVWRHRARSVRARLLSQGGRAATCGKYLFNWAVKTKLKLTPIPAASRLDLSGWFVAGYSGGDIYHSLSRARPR

SMILES	IC50 [1, 7] [nM]	EC50 [2, 8] [nM]	EC50 [2, 9] [nM]	EC50 [2, 10] [nM]	IC50 [3, 11] [nM]	C316Y/1a Fold Resistance [4] [fold]	IC50 [5] [nM]	EC50 [6, 12] [nM]	EC50 [6, 13] [nM]	EC50 [6, 14] [nM]	EC50 [6, 15] [nM]	IC50 [1] [nM]	IC50 [3] [nM]
CC(c1ccccc1)N(c1ccc2c(-c3ncc[nH]3)c(-c3ccccc3)oc2c1)S(C)(=O)=O (stereo not shown) [Example 20, N-[3-(1H-imidazol-2-yl)-2-phenyl-1-benzofuran-6-yl]-N-(1-phenylethyl)methanesulfonamide]	52	7300	133	133	34.9	5	173	1000	10000	1000	1000		
CS(=O)(=O)N(CCC(O)CO)c1cc2oc(-c3ccc(F)cc3)c(-c3ncc[nH]3)c2cc1C1CC1 (stereo not shown) [Example 110, N-[5-cyclopropyl-2-(4-fluorophenyl)-3-(1H-imidazol-2-yl)-1-benzofuran-6-yl]-N-(3,4-dihydroxybutyl)methanesulfonamide]	12	315	16.7	16.7	6.5	19	125	14.3	206	14.3	14.3		
CS(=O)(=O)N(Cc1sc(Br)nc1C(F)(F)F)c1ccc2c(-c3ncc[nH]3)c(-c3ccccc3)oc2c1 [Example 22, N-{[2-bromo-4-(trifluoromethyl)-1,3-thiazol-5-yl]methyl}-N-[3-(1H-imidazol-2-yl)-2-phenyl-1-benzofuran-6-yl]methanesulfonamide]	55		866	866	159	1	179	2380		2380	2380		
COc1ccc(CN(c2cc3oc(-c4ccc(F)cc4)c(-c4nc(Cl)c[nH]4)c3cc2C2CC2)S(C)(=O)=O)cc1 [Example 159, N-[3-(4-chloro-1H-imidazol-2-yl)-5-cyclopropyl-2-(4-fluorophenyl)-1-benzofuran-6-yl]-N-(4-methoxybenzyl)methanesulfonamide]	438	10000	544	544	45	178	8000	990	10000	990	990		
CS(=O)(=O)N(CCCC(=O)O)c1cc2oc(-c3ccc(F)cc3)c(-c3ncc[nH]3)c2cc1C1CC1 [Example 89, 4-{[5-cyclopropyl-2-(4-fluorophenyl)-3-(1H-imidazol-2-yl)-1-benzofuran-6-yl](methylsulfonyl)amino}butanoic acid]	65	376	91.5	91.5	5	15	77	269	2440	269	269		
CS(=O)(=O)N(Cc1cc(O)no1)c1cc2oc(-c3ccc(F)cc3)c(-c3ncc[nH]3)c2cc1C1CC1 [Example 190, N-[5-cyclopropyl-2-(4-fluorophenyl)-3-(1H-imidazol-2-yl)-1-benzofuran-6-yl]-N-[(3-hydroxy-1,2-oxazol-5-yl)methyl]methanesulfonamide]		1370		116		112	500	263	3460		263	26	4.5
CC(C)N(c1cc2oc(-c3ccc(F)cc3)c(-c3ncc[nH]3)c2cc1C1CC1)S(C)(=O)=O [Example 52, N-[5-cyclopropyl-2-(4-fluorophenyl)-3-(1H-imidazol-2-yl)-1-benzofuran-6-yl]-N-isopropylmethanesulfonamide]	132	661	114	114	7.7	286	2220	130	1410	130	130		
Cc1ncsc1CCN(c1cc2oc(-c3ccc(F)cc3)c(-c3ncc[nH]3)c2cc1C1CC1)S(C)(=O)=O [Example 78, N-[5-cyclopropyl-2-(4-fluorophenyl)-3-(1H-imidazol-2-yl)-1-benzofuran-6-yl]-N-[2-(4-methyl-1,3-thiazol-5-yl)ethyl]methanesulfonamide]	13	514	15.7	15.7	4	27	107	38.5	1060	38.5	38.5		
CC(O)CN(c1cc2oc(-c3ccc(F)cc3)c(-c3ncc[nH]3)c2cc1C1CC1)S(C)(=O)=O (stereo not shown) [Example 98, N-[5-cyclopropyl-2-(4-fluorophenyl)-3-(1H-imidazol-2-yl)-1-benzofuran-6-yl]-N-(2-hydroxypropyl)methanesulfonamide]	240	2060	136	136	24.5	131	3200	158	1630	158	158		
CS(=O)(=O)N(CC1CCCO1)c1cc2oc(-c3ccc(F)cc3)c(-c3ncc[nH]3)c2cc1C1CC1 (stereo not shown) [Example 75, N-[5-cyclopropyl-2-(4-fluorophenyl)-3-(1H-imidazol-2-yl)-1-benzofuran-6-yl]-N-(tetrahydrofuran-2-ylmethyl)methanesulfonamide]	60	1160	45	45	6.5	247	1600	69.6	1080	69.6	69.6		
CS(=O)(=O)N(Cc1ccccc1)c1ccc2c(-c3ncc[nH]3)c(-c3ccccc3)oc2c1 [Example 21, N-benzyl-N-[3-(1H-imidazol-2-yl)-2-phenyl-1-benzofuran-6-yl]methanesulfonamide]	99	10000	593	593	47.6	2	90	3440		3440	3440		
CS(=O)(=O)N(CCCN)c1cc2oc(-c3ccc(F)cc3)c(-c3ncc[nH]3)c2cc1C1CC1 [Example 112, N-(3-aminopropyl)-N-[5-cyclopropyl-2-(4-fluorophenyl)-3-(1H-imidazol-2-yl)-1-benzofuran-6-yl]methanesulfonamide]	51	101	34	34	10.6	82	868	262	1030	262	262		
